Laboratory results taken from PMC5218480 (PLoS ONE, 2017).

System: MV-4-11 cells
Assay: Gene expression microarray analysis (Affymetrix PrimeView) and GSEA
Assay type: cell-based, human
Design: RFU PODN (11730768_x_at) / Fold change /veh PODN (11730768_x_at) / RFU LINC00158 (11744669_a_at) / Fold change /veh LINC00158 (11744669_a_at) / RFU DUSP10 (11751237_a_at) / Fold change /veh DUSP10 (11751237_a_at) / RFU ID3 (11757404_x_at) / Fold change /veh ID3 (11757404_x_at) / RFU PLEKHG5 (11737974_s_at) / Fold change /veh PLEKHG5 (11737974_s_at) / RFU LRRC4B (11730491_at) / Fold change /veh LRRC4B (11730491_at) / RFU GIMAP4 (11747438_a_at) / Fold change /veh GIMAP4 (11747438_a_at) / RFU KRT8 (11758183_x_at) / Fold change /veh KRT8 (11758183_x_at) / RFU CNN1 (11734310_a_at) / Fold change /veh CNN1 (11734310_a_at) / RFU VPS37D (11726825_at) / Fold change /veh VPS37D (11726825_at) / RFU C10orf10 (11716522_x_at) / Fold change /veh C10orf10 (11716522_x_at) / RFU KIR2DL2 /// KIR2DL4 /// KIR2DL5A /// KIR2DL5B /// KIR2DS1 /// KIR2DS2 /// KIR2DS3 /// KIR2DS4 /// KIR3DL3 /// KIR3DL3 /// KIR3DS1 (11738374_at) / Fold change /veh KIR2DL2 /// KIR2DL4 /// KIR2DL5A /// KIR2DL5B /// KIR2DS1 /// KIR2DS2 /// KIR2DS3 /// KIR2DS4 /// KIR3DL3 /// KIR3DL3 /// KIR3DS1 (11738374_at) / RFU C1QL1 (11718748_at) / Fold change /veh C1QL1 (11718748_at) / RFU TMPRSS4 (11747572_a_at) / Fold change /veh TMPRSS4 (11747572_a_at) / RFU HAMP (11756126_x_at) / Fold change /veh HAMP (11756126_x_at) / RFU RNFT2 (11725882_a_at) / Fold change /veh RNFT2 (11725882_a_at) / RFU NR4A2 (11747474_a_at) / Fold change /veh NR4A2 (11747474_a_at) / RFU ABCC12 (11746883_a_at) / Fold change /veh ABCC12 (11746883_a_at) / RFU TMEM136 (11760407_x_at) / Fold change /veh TMEM136 (11760407_x_at) / RFU CLDN22 /// WWC2 (11732394_at) / Fold change /veh CLDN22 /// WWC2 (11732394_at) / RFU HLA-DPB1 (11760878_x_at) / Fold change /veh HLA-DPB1 (11760878_x_at) / RFU SPINT1 (11716480_a_at) / Fold change /veh SPINT1 (11716480_a_at) / RFU GAP43 (11754022_s_at) / Fold change /veh GAP43 (11754022_s_at) / RFU A4GNT (11735810_at) / Fold change /veh A4GNT (11735810_at) / RFU PRB3 (11715151_x_at) / Fold change /veh PRB3 (11715151_x_at) / RFU TUBB4B (11761932_at) / Fold change /veh TUBB4B (11761932_at) / RFU CAPN14 (11732068_a_at) / Fold change /veh CAPN14 (11732068_a_at) / RFU TMCC2 (11721928_a_at) / Fold change /veh TMCC2 (11721928_a_at) / RFU IRGQ (11745062_a_at) / Fold change /veh IRGQ (11745062_a_at) / RFU FAM174B (11720279_a_at) / Fold change /veh FAM174B (11720279_a_at) / RFU TMPRSS4 (11748680_a_at) / Fold change /veh TMPRSS4 (11748680_a_at) / RFU FAM212B (11763350_a_at) / Fold change /veh FAM212B (11763350_a_at) / RFU PLEKHG5 (11743358_a_at) / Fold change /veh PLEKHG5 (11743358_a_at) / RFU ZSCAN30 (11745921_a_at) / Fold change /veh ZSCAN30 (11745921_a_at) / RFU CMKLR1 (11741424_a_at) / Fold change /veh CMKLR1 (11741424_a_at) / RFU LOC101060620 /// MAPK8IP1 (11723275_at) / Fold change /veh LOC101060620 /// MAPK8IP1 (11723275_at) / RFU SPTSSB (11747773_x_at) / Fold change /veh SPTSSB (11747773_x_at) / RFU PRSS12 (11739890_at) / Fold change /veh PRSS12 (11739890_at) / RFU BIN1 (11741810_x_at) / Fold change /veh BIN1 (11741810_x_at) / RFU WNT11 (11732464_a_at) / Fold change /veh WNT11 (11732464_a_at) / RFU C10orf10 (11716521_a_at) / Fold change /veh C10orf10 (11716521_a_at) / RFU C5orf56 (11738089_at) / Fold change /veh C5orf56 (11738089_at) / RFU CYB561 (11721691_x_at) / Fold change /veh CYB561 (11721691_x_at) / RFU ANKRD19P (11752326_a_at) / Fold change /veh ANKRD19P (11752326_a_at) / RFU OR2T12 /// OR2T33 /// OR2T8 (11738714_s_at) / Fold change /veh OR2T12 /// OR2T33 /// OR2T8 (11738714_s_at) / RFU VCAN (11748164_a_at) / Fold change /veh VCAN (11748164_a_at) / RFU JSRP1 (11732532_at) / Fold change /veh JSRP1 (11732532_at) / RFU KRTAP10-11 (11738290_x_at) / Fold change /veh KRTAP10-11 (11738290_x_at) / RFU MYO3A (11730013_a_at) / Fold change /veh MYO3A (11730013_a_at) / RFU EBF3 (11725865_a_at) / Fold change /veh EBF3 (11725865_a_at) / RFU CAMK2N1 (11719241_x_at) / Fold change /veh CAMK2N1 (11719241_x_at) / RFU C5orf56 (11738088_a_at) / Fold change /veh C5orf56 (11738088_a_at) / RFU OLFML3 (11715873_a_at) / Fold change /veh OLFML3 (11715873_a_at) / RFU LOC100653217 /// NTM (11731650_a_at) / Fold change /veh LOC100653217 /// NTM (11731650_a_at) / RFU MAPK11 (11762145_a_at) / Fold change /veh MAPK11 (11762145_a_at) / RFU FIZ1 (11724087_x_at) / Fold change /veh FIZ1 (11724087_x_at) / RFU OASL (11726364_x_at) / Fold change /veh OASL (11726364_x_at) / RFU SOX15 (11748057_x_at) / Fold change /veh SOX15 (11748057_x_at) / RFU CD79A (11719716_a_at) / Fold change /veh CD79A (11719716_a_at) / RFU HIST1H1D (11736915_at) / Fold change /veh HIST1H1D (11736915_at) / RFU CASKIN2 (11723855_a_at) / Fold change /veh CASKIN2 (11723855_a_at) / RFU LOC730098 (11760151_x_at) / Fold change /veh LOC730098 (11760151_x_at) / RFU OR4N2 (11742367_at) / Fold change /veh OR4N2 (11742367_at) / RFU PRRT2 (11749266_a_at) / Fold change /veh PRRT2 (11749266_a_at) / RFU SNX32 (11753110_a_at) / Fold change /veh SNX32 (11753110_a_at) / RFU CDHR5 (11726645_a_at) / Fold change /veh CDHR5 (11726645_a_at) / RFU RCAN1 (11760418_a_at) / Fold change /veh RCAN1 (11760418_a_at) / RFU FAM167A (11723789_a_at) / Fold change /veh FAM167A (11723789_a_at) / RFU FAM26E (11764081_at) / Fold change /veh FAM26E (11764081_at) / RFU ISYNA1 (11749810_s_at) / Fold change /veh ISYNA1 (11749810_s_at) / RFU ACY1 (11761880_at) / Fold change /veh ACY1 (11761880_at) / RFU 11764098_at / Fold change /veh 11764098_at / RFU SAMD14 (11745864_x_at) / Fold change /veh SAMD14 (11745864_x_at) / RFU NPB (11741838_a_at) / Fold change /veh NPB (11741838_a_at) / RFU TMPRSS6 (11731388_a_at) / Fold change /veh TMPRSS6 (11731388_a_at) / RFU KRTAP10-2 (11738614_at) / Fold change /veh KRTAP10-2 (11738614_at) / RFU ARHGAP8 /// PRR5-ARHGAP8 (11727945_x_at) / Fold change /veh ARHGAP8 /// PRR5-ARHGAP8 (11727945_x_at) / RFU KRTAP5-7 /// NADSYN1 (11734609_at) / Fold change /veh KRTAP5-7 /// NADSYN1 (11734609_at) / RFU RASL12 (11751679_a_at) / Fold change /veh RASL12 (11751679_a_at) / RFU CDKN2B (11736163_a_at) / Fold change /veh CDKN2B (11736163_a_at) / RFU PRF1 (11729649_at) / Fold change /veh PRF1 (11729649_at) / RFU, ZNF638 /// ZNF638-IT1 / Fold change vs veh, ZNF638 /// ZNF638-IT1 / RFU, PANK3 / Fold change vs veh, PANK3 / RFU, SH3YL1 / Fold change vs veh, SH3YL1 / RFU, ZEB2 / Fold change vs veh, ZEB2 / RFU, NRIP1 / Fold change vs veh, NRIP1 / RFU, PTTG1IP / Fold change vs veh, PTTG1IP / RFU, CAPN2 / Fold change vs veh, CAPN2 / RFU, MED14 / Fold change vs veh, MED14 / RFU, SNORA58 / Fold change vs veh, SNORA58 / RFU, C1orf63 / Fold change vs veh, C1orf63 / RFU, LRRFIP1 / Fold change vs veh, LRRFIP1 / RFU, NDUFAF7 / Fold change vs veh, NDUFAF7 / RFU, SLC12A2 / Fold change vs veh, SLC12A2 / RFU, IBTK / Fold change vs veh, IBTK / RFU, ESF1 / Fold change vs veh, ESF1 / Fold change vs veh, TMEM50B / RFU, TAOK1 / Fold change vs veh, TAOK1 / RFU, ACBD3 / Fold change vs veh, ACBD3 / RFU, TMA16 / Fold change vs veh, TMA16 / RFU, RWDD3 / Fold change vs veh, RWDD3 / RFU, BCAT1 / Fold change vs veh, BCAT1 / RFU, EDEM3 / Fold change vs veh, EDEM3 / RFU, TMEM33 / Fold change vs veh, TMEM33 / RFU, WDR75 / Fold change vs veh, WDR75 / RFU, AHCTF1 / Fold change vs veh, AHCTF1 / RFU, TFRC / Fold change vs veh, TFRC / RFU, ZDHHC17 / Fold change vs veh, ZDHHC17 / RFU, NOM1 / Fold change vs veh, NOM1 / RFU, ARL8B / Fold change vs veh, ARL8B / RFU, ZBTB11 / Fold change vs veh, ZBTB11 / RFU, TAMM41 / Fold change vs veh, TAMM41 / RFU, KIAA1704 /// LOC100996395 / Fold change vs veh, KIAA1704 /// LOC100996395 / RFU, ING1 / Fold change vs veh, ING1 / RFU, TRMT61B / Fold change vs veh, TRMT61B / RFU, FUBP3 / Fold change vs veh, FUBP3 / RFU, TP53 / Fold change vs veh, TP53 / RFU, TNKS2 / Fold change vs veh, TNKS2 / RFU, ZFP14 / Fold change vs veh, ZFP14 / RFU, ACTR2 / Fold change vs veh, ACTR2 / RFU, PPP3R1 / Fold change vs veh, PPP3R1 / RFU, PIK3R1 / Fold change vs veh, PIK3R1 / RFU, HNRNPA1 / Fold change vs veh, HNRNPA1 / RFU, RNF170 / Fold change vs veh, RNF170 / RFU, ZNF28 / Fold change vs veh, ZNF28 / RFU, RNGTT / Fold change vs veh, RNGTT / RFU, OGT / Fold change vs veh, OGT / RFU, BRD1 / Fold change vs veh, BRD1 / RFU, MARS / Fold change vs veh, MARS / RFU, ZNF655 / Fold change vs veh, ZNF655 / RFU, FAHD1 / Fold change vs veh, FAHD1 / RFU, BDP1 / Fold change vs veh, BDP1 / RFU, LRRCC1 / Fold change vs veh, LRRCC1 / RFU, ARID1A / Fold change vs veh, ARID1A / RFU, ZNF146 / Fold change vs veh, ZNF146 / RFU, ZNF330 / Fold change vs veh, ZNF330 / RFU, GPN3 / Fold change vs veh, GPN3 / RFU, C9orf123 / Fold change vs veh, C9orf123 / RFU, N4BP2L2 / Fold change vs veh, N4BP2L2 / RFU, ARFIP1 / Fold change vs veh, ARFIP1 / RFU, FAM179B / Fold change vs veh, FAM179B / RFU, BCL10 / Fold change vs veh, BCL10 / RFU, UHRF1BP1L / Fold change vs veh, UHRF1BP1L / RFU, BET1 / Fold change vs veh, BET1 / RFU, CNOT2 / Fold change vs veh, CNOT2 / RFU, ZNF268 / Fold change vs veh, ZNF268 / Fold change vs veh, ZNF507 / RFU, DGCR2 / Fold change vs veh, DGCR2 / RFU, WDSUB1 / Fold change vs veh, WDSUB1 / Fold change vs veh, HSP90B1 /// MIR3652 / RFU, ADSS / Fold change vs veh, ADSS / RFU, GK / Fold change vs veh, GK / RFU, ZNF148 / Fold change vs veh, ZNF148 / RFU, TAF9 / Fold change vs veh, TAF9 / RFU, SLC1A5 / Fold change vs veh, SLC1A5 / RFU, SLMO2 / Fold change vs veh, SLMO2 / RFU, ABCC4 / Fold change vs veh, ABCC4 / RFU, LOC101060439 /// RAP1B / Fold change vs veh, LOC101060439 /// RAP1B / RFU, RFX7 / Fold change vs veh, RFX7 / RFU, GTPBP10 / Fold change vs veh, GTPBP10 / RFU, CNEP1R1 / Fold change vs veh, CNEP1R1 / RFU, BIVM-ERCC5 /// ERCC5 / Fold change vs veh, BIVM-ERCC5 /// ERCC5 / RFU, ILF3 / Fold change vs veh, ILF3 / RFU 11762660_at / Fold change /veh 11762660_at / RFU VCAN (11757783_s_at) / Fold change /veh VCAN (11757783_s_at) / RFU DDX43 (11728927_at) / Fold change /veh DDX43 (11728927_at) / RFU KRT8 (11758188_x_at) / Fold change /veh KRT8 (11758188_x_at) / RFU NKD1 (11759106_at) / Fold change /veh NKD1 (11759106_at) / RFU SRD5A1 (11742802_a_at) / Fold change /veh SRD5A1 (11742802_a_at) / RFU TPSAB1 /// TPSB2 (11721975_s_at) / Fold change /veh TPSAB1 /// TPSB2 (11721975_s_at) / RFU GSTM3 (11746129_a_at) / Fold change /veh GSTM3 (11746129_a_at) / RFU IL23R (11737362_x_at) / Fold change /veh IL23R (11737362_x_at) / RFU TMEM51 (11727254_a_at) / Fold change /veh TMEM51 (11727254_a_at) / RFU PIWIL2 (11732686_x_at) / Fold change /veh PIWIL2 (11732686_x_at) / RFU ORM1 (11744905_x_at) / Fold change /veh ORM1 (11744905_x_at) / RFU CCDC152 (11743942_at) / Fold change /veh CCDC152 (11743942_at) / RFU ECM1 (11717891_a_at) / Fold change /veh ECM1 (11717891_a_at) / RFU IL23R (11748794_a_at) / Fold change /veh IL23R (11748794_a_at) / RFU TNFAIP8L3 (11732012_x_at) / Fold change /veh TNFAIP8L3 (11732012_x_at) / RFU MBOAT4 (11741988_at) / Fold change /veh MBOAT4 (11741988_at) / RFU 11764193_at / Fold change /veh 11764193_at / RFU TMEM53 (11763286_at) / Fold change /veh TMEM53 (11763286_at) / RFU MAGEB2 (11727129_at) / Fold change /veh MAGEB2 (11727129_at) / RFU TMEM200A (11744735_a_at) / Fold change /veh TMEM200A (11744735_a_at) / RFU CCDC152 (11751479_a_at) / Fold change /veh CCDC152 (11751479_a_at) / RFU FAM211A (11726209_a_at) / Fold change /veh FAM211A (11726209_a_at) / RFU RGS16 (11746705_a_at) / Fold change /veh RGS16 (11746705_a_at) / RFU VCAN (11755009_s_at) / Fold change /veh VCAN (11755009_s_at) / RFU RHOB (11743442_s_at) / Fold change /veh RHOB (11743442_s_at) / RFU RGS16 (11720943_a_at) / Fold change /veh RGS16 (11720943_a_at) / RFU RGS16 (11720944_at) / Fold change /veh RGS16 (11720944_at) / RFU, VPS4B / Fold change vs veh, VPS4B / RFU, CREB1 / Fold change vs veh, CREB1 / RFU, DNAJC13 / Fold change vs veh, DNAJC13 / RFU, GNAQ / Fold change vs veh, GNAQ / RFU, CDK5R1 / Fold change vs veh, CDK5R1 / RFU, ZRANB3 / Fold change vs veh, ZRANB3 / RFU, CUL4A / Fold change vs veh, CUL4A / RFU, CCNY / Fold change vs veh, CCNY / RFU, UFL1 / Fold change vs veh, UFL1 / RFU, COG3 / Fold change vs veh, COG3 / RFU, DIAPH2 / Fold change vs veh, DIAPH2 / RFU, SKA2 / Fold change vs veh, SKA2 / RFU, AFF3 / Fold change vs veh, AFF3 / RFU, LMF1 / Fold change vs veh, LMF1 / RFU, IPO11 / Fold change vs veh, IPO11 / RFU, DFFB / Fold change vs veh, DFFB / RFU, FOXP1 / Fold change vs veh, FOXP1 / RFU, CARD8 / Fold change vs veh, CARD8 / RFU, STRN3 / Fold change vs veh, STRN3 / RFU, ADK / Fold change vs veh, ADK / RFU, RASSF2 / Fold change vs veh, RASSF2 / RFU, WIPF1 / Fold change vs veh, WIPF1 / RFU, LARP1B / Fold change vs veh, LARP1B / RFU, RASA1 / Fold change vs veh, RASA1 / RFU, RB1 / Fold change vs veh, RB1 / RFU, PPFIA1 / Fold change vs veh, PPFIA1 / RFU, MAT2A / Fold change vs veh, MAT2A / RFU, CCT5 / Fold change vs veh, CCT5 / RFU, WDR92 / Fold change vs veh, WDR92 / RFU, CUX1 / Fold change vs veh, CUX1 / RFU, TTC7A / Fold change vs veh, TTC7A / RFU, TMEM135 / Fold change vs veh, TMEM135 / RFU, DEPTOR / Fold change vs veh, DEPTOR / RFU, CPM / Fold change vs veh, CPM / RFU, DNAJB6 / Fold change vs veh, DNAJB6 / RFU, CACNA2D3 / Fold change vs veh, CACNA2D3 / RFU, DTX4 / Fold change vs veh, DTX4 / RFU, TFCP2 / Fold change vs veh, TFCP2 / RFU, GMCL1 /// GMCL1P1 / Fold change vs veh, GMCL1 /// GMCL1P1 / RFU, AEBP2 / Fold change vs veh, AEBP2 / RFU, SNHG1 /// SNORD22 /// SNORD25 /// SNORD26 /// SNORD27 /// SNORD28 /// SNORD29 /// SNORD31 / Fold change vs veh, SNHG1 /// SNORD22 /// SNORD25 /// SNORD26 /// SNORD27 /// SNORD28 /// SNORD29 /// SNORD31 / Fold change (Aza/veh), C12orf56 (ProbeSet 11735607_a_at) / Fold change (ACY-1035/veh), C12orf56 (ProbeSet 11735607_a_at) / Fold change (Aza/veh), FGFR1OP (ProbeSet 11751329_s_at) / Fold change (ACY-1035/veh), FGFR1OP (ProbeSet 11751329_s_at) / Fold change (Aza/veh), VPS36 (ProbeSet 11739960_a_at) / Fold change (ACY-1035/veh), VPS36 (ProbeSet 11739960_a_at) / RFU SYPL1 (11715823_x_at) / Fold change /veh SYPL1 (11715823_x_at) / RFU IGFBP7 (11715501_s_at) / Fold change /veh IGFBP7 (11715501_s_at) / RFU REEP3 (11722064_at) / Fold change /veh REEP3 (11722064_at) / RFU IGLL1 (11728026_x_at) / Fold change /veh IGLL1 (11728026_x_at): dose or concentration left out as unconfirmed
Conditions: ProbeSet 11741123_x_at; LIST D

## Nc1ncn([C@@H]2O[C@H](CO)[C@@H](O)[C@H]2O)c(=O)n1 [azacitidine]
  RFU, ADK: 188.85 RFU
